Where “and” joins values, the source holds several entries; their conditions need not be identical. Equal entries are not always repeated.
Experiments:
[1] = Cytotoxicity by neutral red dye uptake in replicon cultures in parallel plates; conditions: human
Experimental: (§1) Primary anti-HCV assay-Antiviral activity against HCV was assessed in a 3-day assay (Okuse, et al., 2005; Antiviral. Res. 65:23; Korba, et al., 2008, Antiviral Res. 77:56) using the stably-expressing HCV replicon cell line, AVA5 [sub-genomic (CON1), genotype 1b](Blight, et al., 2000, Science 290:1972) maintained as sub-confluent cultures on 96-well plates. Antiviral activity was determined by blot hybridization analysis of intracellular HCV RNA (normalized to the level of cellular B-actin RNA in each culture sample). Cytotoxicity was assessed by neutral red dye uptake in cultures maintained in parallel plates.
(§2) EC50, EC90, and CC50 values were calculated by linear regression analysis (MS EXCEL®, QUATTROPRO®) using data combined from all treated cultures Korba & Gerin, 1992, Antivir. Res. 19:55; Okuse, et al., 2005, Antivir. Res. 65:23). Standard deviations for EC50 and EC90 values were calculated from the standard errors generated by the regression analyses. […] The Selectivity index (S.I.) was calculated as CC50/EC50. Recombinant human interferon 2b (PBL laboratories, Inc.) was used as an assay control.
(§3) For each combination of agents, three concentration ratios, centered on the use of the compounds at equipotent antiviral concentrations, were used. A dilution series (six three-fold-concentration steps, beginning at the approximate EC90) was then generated with the concentration ratio of the two agents remaining the same in each dilution step. Toxicity analysis was performed as described above for the monotherapies. Analysis of drug interactions in the combination studies was determined by the use of the […] program (Biosoft, Inc., Cambridge, United Kingdom). This program evaluates synergy, additivity, or antagonism by use of several methodologies, including that of Chou and Talalay with a statistical analysis employing the Monte Carlo technique to provide confidence limits, fraction-affected-confidence interval (FA-CI) plots, isobolograms, and median-effect plots. (Belenkii, M. S. Schinazi, R. A method for the analysis of combination therapies with statistical analysis. Antiviral Res. 25, 11, 2005).

[2] = system: HCV replicon cell line, AVA5; assay: as above; conditions: Table 5, Compound 2 alone or in combination, genotype 1B
Experimental: as §1, §2, §3

[3] = MTT cytotoxicity assay, Vero; type: cell-based; conditions: African green monkey, Vero cells, 24-hour incubation
Experimental: Cellular cytotoxicity profile of the compounds was carried out against a panel of cell lines. Standard MTT assays were performed in 96-well plates using the Promega CellTiter96 Non-radioactive Cell Proliferation Assay Kit in conjunction with a 96-well Plate Reader (ThermoMax, Molecular devices), and MDBK, Vero, and HFF cell lines (obtained from ATCC). Several controls were employed including the nucleoside analogs 3TC, AZT, and ddC, as well as, media without drugs. SDS was used as a positive cytotoxic control. The compounds were tested in triplicate at concentrations of 100, 300, and 1000 μM. Following a 24-hour incubation of cells with the test substance, the MTT assay was carried out.

[4] = system: TA1535; assay: In vitro bacterial mutagenicity assay (pre-incubation), strain TA1535; conditions: for Number of revertants x1, x2, x3: individual plates
Experimental: (§4) Dispense 100 microliter aliquots of the appropriate bacterial cultures into sample tubes stored on ice. Dispense aliquots of the vehicle, positive controls or dose formulations into the appropriate sample tubes. 2 mL top Agar and HBT cap was added to the sample tube, inverted three times and poured into MG plate. The lid was replaced on the plate and left on a level surface to let the agar harden. The plates were incubated in an incubator for 48 to 72 h. The background lawn and count the number of revertants was checked for each plate.

[5] = system: TA100; assay: In vitro bacterial mutagenicity assay (pre-incubation), strain TA100; conditions: for Number of revertants x1, x2, x3: individual plates
Experimental: as §4

[6] = TA1535, absence of S9, 50 μg/plate
[7] = TA1535, absence of S9, 158 μg/plate
[8] = TA1535, absence of S9, 500 μg/plate
[9] = TA1535, absence of S9, 1581 μg/plate
[10] = TA1535, absence of S9, 5000 μg/plate
[11] = TA1535, presence of S9, 50 μg/plate
[12] = TA1535, presence of S9, 158 μg/plate
[13] = TA1535, presence of S9, 500 μg/plate
[14] = TA1535, presence of S9, 1581 μg/plate
[15] = TA1535, presence of S9, 5000 μg/plate
[16] = TA100, absence of S9, 50 μg/plate
[17] = TA100, absence of S9, 158 μg/plate
[18] = TA100, absence of S9, 500 μg/plate
[19] = TA100, absence of S9, 1581 μg/plate
[20] = TA100, absence of S9, 5000 μg/plate
[21] = TA100, presence of S9, 50 μg/plate
[22] = TA100, presence of S9, 158 μg/plate
[23] = TA100, presence of S9, 500 μg/plate
[24] = TA100, presence of S9, 1581 μg/plate
[25] = TA100, presence of S9, 5000 μg/plate

In the case of `COC1C(OP(=O)(OC[C@H]2O[C@@H](n3cnc4c(N)ncnc43)CC2O)SCOC(=O)OC(C)C)[C@@H](CO)O[C@H]1n1ccc(=O)[nH]c1=O` (stereo partly shown) [Compound 2, S-isopropylcarbonyloxymethyl thiophosphate (6k) of 3′dApsU2′OMe], the CC50 at 3 day [1] is reported as > 100 µM, the CC50 [2] is reported as > 100 µM and the CC50 at 24 h [3] is reported as > 1000 µM. For the same compound, the “Number of revertants mean” value [4, 6] was 14, the “Number of revertants x1, x2, x3” value [4, 6] was 10 and 15 and 16 and the “Number of revertants mean” value [4, 7] was 23. For the same compound, the “Number of revertants x1, x2, x3” value [4, 7] was 21 (2×) and 26, the “Number of revertants mean” value [4, 8] was 17 and the “Number of revertants x1, x2, x3” value [4, 8] was 15 and 20 and 17. For the same compound, the “Number of revertants mean” value [4, 9] was 16, the “Number of revertants x1, x2, x3” value [4, 9] was 13 and 18 and 17 and the “Number of revertants mean” value [4, 10] was 18. For the same compound, the “Number of revertants x1, x2, x3” value [4, 10] was 18 (2×) and 17, the “Number of revertants mean” value [4, 11] was 19 and the “Number of revertants x1, x2, x3” value [4, 11] was 21 and 15 and 20. The “Number of revertants mean” value [4, 12] was 16, the “Number of revertants x1, x2, x3” value [4, 12] was 11 and 20 and 16 and the “Number of revertants mean” value [4, 13] was 17. For the same compound, the “Number of revertants x1, x2, x3” value [4, 13] was 19 and 13 and 20, the “Number of revertants mean” value [4, 14] was 22 and the “Number of revertants x1, x2, x3” value [4, 14] was 27 and 21 and 17. The “Number of revertants mean” value [4, 15] was 17, the “Number of revertants x1, x2, x3” value [4, 15] was 18 and 16 (2×) and the “Number of revertants mean” value [5, 16] was 112. For the same compound, the “Number of revertants x1, x2, x3” value [5, 16] was 98 and 112 and 127, the “Number of revertants mean” value [5, 17] was 121 and the “Number of revertants x1, x2, x3” value [5, 17] was 110 and 133 and 119. The “Number of revertants mean” value [5, 18] was 133, the “Number of revertants x1, x2, x3” value [5, 18] was 134 and 127 and 138 and the “Number of revertants mean” value [5, 19] was 113. For the same compound, the “Number of revertants x1, x2, x3” value [5, 19] was 122 and 107 and 109, the “Number of revertants mean” value [5, 20] was 115 and the “Number of revertants x1, x2, x3” value [5, 20] was 98 and 126 and 122. For the same compound, the “Number of revertants mean” value [5, 21] was 107, the “Number of revertants x1, x2, x3” value [5, 21] was 111 and 109 and 100 and the “Number of revertants mean” value [5, 22] was 120. The “Number of revertants x1, x2, x3” value [5, 22] was 115 and 133 and 111, the “Number of revertants mean” value [5, 23] was 126 and the “Number of revertants x1, x2, x3” value [5, 23] was 134 and 137 and 108. For the same compound, the “Number of revertants mean” value [5, 24] was 126, the “Number of revertants x1, x2, x3” value [5, 24] was 136 and 122 and 121 and the “Number of revertants mean” value [5, 25] was 126. The “Number of revertants x1, x2, x3” value [5, 25] was 122 and 130 and 126.

From patent publication US8404651B2, “Compositions and methods for treating viral infections” (priority 2008, dated 2013)
